Assay results from the C3SDB collision cross section collection.

Columns and labels:
[1] = [M+H]+; instrument: TW
[2] = instrument: DT, stepped-field
[3] = [M+H]+; instrument: DT; single field, calibrated with Agilent tune mix (Agilent)

| Structure (SMILES) | collision cross section (N2) [1] | other results |
| --- | --- | --- |
| CC(C)(C)[C@H](O)[C@H](Cc1ccc(Cl)cc1)n1cncn1 (racemic) [Paclobutrazol] | 168.73 Å² |  |
| O=C\1\C=C/[C@]3(/C(=C/1)CC[C@H]4[C@@H]2CCC(=O)[C@]2(CC[C@H]34)C)C [1,4-androstadiene-3,17-dione] | 166.5 Å² |  |
| C[C@]12Cc3cn[nH]c3C[C@@H]1CC[C@@H]1[C@@H]2CC[C@@]2(C)[C@H]1C[C@H](O)[C@]2(C)O [16B-hydroxystanozolol] | 192.1 Å² |  |
| C[C@]12CCC(=O)C=C1CC[C@@H]1[C@@H]2CC[C@@]2(C)[C@H]1CC[C@]2(C)O [17a-Methyltestosterone] | 173.7 Å² |  |
| C/C(=N\C#N)N(C)Cc1ccc(Cl)nc1 [Acetamiprid] | 150.24 Å² |  |
| CC(=O)c1ccc2c(c1)N(CCCN(C)C)c1ccccc1S2 [Acetopromazine] | 160.5 Å² |  |
| C[C@H]1C[C@H]2[C@@H]3CCC4=CC(=O)C=C[C@]4(C)[C@@]3(Cl)[C@@H](O)C[C@]2(C)[C@@]1(O)C(=O)CO [Beclomethasone] | 189.2 Å² |  |
| CC(C)N1C(=O)N(c2ccccc2)CS/C1=N\C(C)(C)C [Buprofezin] | 173.58 Å² |  |
| CC1=C(C(=O)Nc2ccccc2)SCCO1 [Carboxin] | 149.35 Å² |  |
| CC(C(=O)O)c1ccc2c(c1)[nH]c1ccc(Cl)cc12 (stereo not drawn) [Carprofen] | 156.1 Å² |  |
| Nc1cnn(-c2ccccc2)c(=O)c1Cl [Chloridazon] | 141.59 Å² |  |
| CN(C)C(=O)Nc1ccc(Oc2ccc(Cl)cc2)cc1 [Chloroxuron] | 172.24 Å² |  |
| CN(C)CCCN1c2ccccc2Sc2ccc(Cl)cc21 [Chlorpromazine] | 169.1 Å² |  |
| CN(C)[C@@H]1C(O)=C(C(=N)O)C(=O)[C@@]2(O)C(O)=C3C(=O)c4c(O)ccc(Cl)c4[C@@](C)(O)[C@H]3C[C@@H]12 [Chlortetracycline] | 203.9 Å² |  |
| Cc1ccc(/N=C(/O)N(C)C)cc1Cl [Chlortoluron] | 145.96 Å² |  |
| CC(C)(C)NCC(O)c1cc(Cl)c(N)c(Cl)c1 (stereo not drawn) [Clenbuterol] | 159.2 Å² |  |
| Cc1ccc(-c2c(Cl)nc(C#N)n2S(=O)(=O)N(C)C)cc1 [Cyazofamid] | 166.69 Å² |  |
| CCN(CC)C(=O)c1cccc(C)c1 [DEET] | 142.48 Å² |  |
| COc1ccc(/C(=C/C(=O)N2CCOCC2)c2ccc(Cl)cc2)cc1OC [Dimethomorph I] | 199.03 Å² |  |
| CCCCc1c(C)nc(NCC)[nH]c1=O [Ethirimol] | 150.65 Å² |  |
| CCCSP(=O)(OCC)SCCC [Ethoprophos] | 149.27 Å² |  |
| N#CC(CCc1ccc(Cl)cc1)(Cn1cncn1)c1ccccc1 (stereo not drawn) [Fenbuconazole] | 182.44 Å² |  |

| Structure (SMILES) | collision cross section (N2) [1] | other results |
| --- | --- | --- |
| Cc1nn(C)c(Oc2ccccc2)c1/C=N/OCc1ccc(C(=O)OC(C)(C)C)cc1 [Fenpyroximate] | 215.89 Å² |  |
| N#Cc1nn(-c2c(Cl)cc(C(F)(F)F)cc2Cl)c(N)c1S(=O)C(F)(F)F (stereo not drawn) [Fipronil] | 180.77 Å² |  |
| CC1(C)OC(=O)C(OCC2CC2)=C1c1ccc(S(C)(=O)=O)cc1 [Firocoxib] | 182.1 Å² |  |
| Nc1c(Cl)c(F)nc(OCC(=O)O)c1Cl [Fluroxypyr] | 140.69 Å² |  |
| CCCCOC(=O)N(C)SN(C)C(=O)Oc1cccc2c1OC(C)(C)C2 [Furathiocarb] | 190.73 Å² |  |
| O=C(CCCN1CCC(O)(c2ccc(Cl)cc2)CC1)c1ccc(F)cc1 [Haloperidol] | 193.9 Å² |  |
| CC1C(c2ccc(Cl)cc2)SC(=O)N1C(=O)NC1CCCCC1 (stereo not drawn) [Hexythiazox] | 183.83 Å² |  |
| O=[N+]([O-])c1cnc(CO)n1CCO [Hydroxymetronidazole] | 128.2 Å² |  |
| C=CCOC(Cn1ccnc1)c1ccc(Cl)cc1Cl (stereo not drawn) [Imazalil] | 164.99 Å² |  |
| O=[N+]([O-])/N=C1\NCCN1Cc1ccc(Cl)nc1 [Imidacloprid] | 149.62 Å² |  |
| CO[C@@H]1[C@@H](O[C@@H]2O[C@H](C)[C@@H](O[C@H]3C[C@@](C)(O)[C@@H](OC(=O)CC(C)C)[C@H](C)O3)[C@H](N(C)C)[C@H]2O)[C@@H](CC=O)C[C@@H](C)[C@@H](O)/C=C/C=C/C[C@@H](C)OC(=O)C[C@H]1OC(C)=O [Josamycin] | 306.8 Å² |  |
| CN1CCN(c2c(F)cc3c(=O)c(C(=O)O)cn4c3c2OCN4C)CC1 [Marbofloxacin] | 179.6 Å² |  |
| Cc1cccc(Nc2ccccc2C(=O)O)c1C [Mefenamic acid] | 150.5 Å² |  |
| Cc1nnc(-c2ccccc2)c(=O)n1N [Metamitron] | 140.93 Å² |  |
| CNC(=O)N(C)c1nc2ccccc2s1 [Methabenzthiazuron] | 142.47 Å² |  |
| CON(C)C(=O)Nc1ccc(Br)cc1 [Metobromuron] | 145.41 Å² |  |
| Cc1ncc([N+](=O)[O-])n1CCO [Metronidazole] | 124.2 Å² |  |
| O=C(O)\C2=C\N(c1cc(c(F)cc1C2=O)N3CCNCC3)CC [Norfloxacine] | 171 Å² |  |
| O=C(NC(=O)c1c(F)cccc1F)Nc1ccc(OC(F)(F)C(F)OC(F)(F)F)c(Cl)c1 (stereo not drawn) [Novaluron] | 196.35 Å² |  |
| C/N=C(/O)CSP(=O)(OC)OC [Omethoate] | 134.62 Å² |  |
| CCCC/C=C\C/C=C\CCCCCCCC(=O)O[C@H](COC(=O)CCCCCCC/C=C\CCCCCCCC)COP(=O)([O-])OCC[N+](C)(C)C [PC(35:3)] |  | collision cross section (N2) ([2]; [M+K]+): 296.1 Å²; collision cross section (N2) [3]: 284.2 Å² |
| CCCCCCCCCC/C=C\CCCCCCCCCC(=O)O[C@H](COC(=O)CCCCCCCCCCCC)COP(=O)(O)OCCN [PE(35:1)] |  | collision cross section (N2) ([2]; [M+K]+): 283.6 Å²; collision cross section (N2) ([2]; [M+Na]+): 282.9 Å²; collision cross section (N2) [3]: 276.6 Å² |

| Structure (SMILES) | collision cross section (N2) [1] | other results |
| --- | --- | --- |
| CCOP(=O)(OCC)Oc1ccc([N+](=O)[O-])cc1 [Paraoxon-ethyl] | 156.76 Å² |  |
| O=C(Nc1ccccc1)N(Cc1ccc(Cl)cc1)C1CCCC1 [Pencycuron] | 179.71 Å² |  |
| Cc1nc(N(C)C)nc(OC(=O)N(C)C)c1C [Pirimicarb] | 154.68 Å² |  |
| CN1C(/C(O)=N/c2ccccn2)=C(O)c2ccccc2S1(=O)=O [Piroxicam] | 170.9 Å² |  |
| O=C2\C(=C(/N(N2c1ccccc1)C)C)C(C)C [Propyphenazone] | 150 Å² |  |
| CCCN(CCC)C(=O)SCc1ccccc1 [Prosulfocarb] | 156.95 Å² |  |
| COc1nc(C)nc(NC(=O)NS(=O)(=O)c2ccccc2CCC(F)(F)F)n1 [Prosulfuron] | 187.01 Å² |  |
| COC(=O)N(OC)c1ccccc1COc1ccn(-c2ccc(Cl)cc2)n1 [Pyraclostrobin] | 183.19 Å² |  |
| CN1CCCN=C1/C=C/c1cccs1 [Pyrantel] | 143 Å² |  |
| CC(COc1ccc(Oc2ccccc2)cc1)Oc1ccccn1 (stereo not drawn) [Pyriproxifen] | 182.76 Å² |  |
| C=C1C[C@@]23CC[C@H]4[C@@](C)(CCC[C@@]4(C)C(=O)O[C@@H]4O[C@H](CO)[C@@H](O)[C@H](O)[C@H]4O)[C@@H]2CC[C@]1(O[C@@H]1O[C@H](CO)[C@@H](O)[C@H](O[C@@H]2O[C@H](CO)[C@@H](O)[C@H](O)[C@H]2O)[C@H]1O[C@@H]1O[C@H](CO)[C@@H](O)[C@H](O)[C@H]1O)C3 [Rebaudioside A] | 299.48 Å² |  |
| Fc1ccc(cc1)N\3c2cc(c(F)cc2C(=O)C(/C(=O)O)=C/3)N4CCNCC4 [Sarafloxacine] | 202 Å² |  |
| CCNc1nc(Cl)nc(NCC)n1 [Simazine] | 142.09 Å² |  |
| C[C@]12Cc3cn[nH]c3C[C@@H]1CC[C@@H]1[C@@H]2CC[C@@]2(C)[C@H]1CC[C@]2(C)O [Stanozolol] | 185.2 Å² |  |
| C=C1C[C@@]23CC[C@H]4[C@@](C)(CCC[C@@]4(C)C(=O)O)[C@@H]2CC[C@]1(O[C@@H]1O[C@H](CO)[C@@H](O)[C@H](O)[C@H]1O[C@@H]1O[C@H](CO)[C@@H](O)[C@H](O)[C@H]1O)C3 [Steviolbioside] | 235.78 Å² |  |
| Cc1ccnc(NS(=O)(=O)c2ccc(N)cc2)n1 [Sulfamerazine] | 154.8 Å² |  |
| Cc1cc(NS(=O)(=O)c2ccc(N)cc2)no1 [Sulfamethoxazole] | 146.3 Å² |  |
| Nc1ccc(S(=O)(=O)Nc2ccccn2)cc1 [Sulfapyridine] | 142.3 Å² |  |
| Nc1ccc(S(=O)(=O)Nc2cnc3ccccc3n2)cc1 [Sulfaquinoxaline] | 164.8 Å² |  |
| O=C(NC(=O)c1c(F)cccc1F)Nc1cc(Cl)c(F)c(Cl)c1F [Teflubenzuron] | 171.81 Å² |  |
| CC/C(=N\OC/C=C/Cl)C1=C(O)CC(C2CCOCC2)CC1=O (stereo not drawn) [Tepraloxydim] | 184.74 Å² |  |
